{
  "source": "patent US6495591B1",
  "about": "“Fungal efflux pump inhibitors” (Essential Therapeutics, Inc., priority 1997, dated 2002)",
  "assay_in_all_cases": "microbe, parasite or virus in culture",
  "format_in_all_cases": "cell-based",
  "key": {"[1]": {"test_system": "S. cerevisiae YEM-37 (CDR2 introduced)"}, "[2]": {"test_system": "C. albicans YEM-5 (CDR1 and CDR2 overexpressor)"}, "[3]": {"test_system": "S. cerevisiae YEM-2 (BEN introduced)", "settings": "YEM-2, BEN; milbemycin β1 […]"}, "[4]": {"test_system": "S. cerevisiae YEM-1 (CDR1 introduced)", "settings": "YEM-1, CDR1; milbemycin β1 […]"}, "[5]": {"test_system": "S. cerevisiae YEM-39 (CgCDR introduced)"}, "[6]": {"test_system": "S. cerevisiae YEM-38 (FLU1 introduced)"}, "[7]": {"test_system": "S. cerevisiae YEM-40 (CgCDR, MF, introduced)"}, "[8]": {"test_system": "C. albicans YEM-11 (BEN overexpressor)"}, "[9]": {"test_system": "C. albicans YEM-13 (BEN overexpressor)"}, "[10]": {"test_system": "C. albicans YEM-15 (CDR1 and CDR2 overexpressor)"}, "[11]": {"test_system": "C. albicans YEM-15 (CDR1 & CDR2 overexpressor)"}, "[12]": {"test_system": "S. cerevisiae YEM-3 (no efflux pump introduced)", "settings": "Saccharomyces cerevisiae, read-out: MIC Flu alone"}, "[13]": {"test_system": "C. glabrata YEM-19 (CgCDR overexpressor)"}, "[14]": {"settings": "Saccharomyces cerevisiae, read-out: MIC Flu alone"}, "[15]": {"settings": "Candida albicans, read-out: MIC Flu alone"}},
  "data": [
    {"compound": "CO[C@H]1C[C@@]2(O)/C(CO)=C/C=C/[C@H](C)C/C(C)=C/C[C@@H]3C[C@@H](C[C@]4(CC[C@H](C)[C@@H](C)O4)O3)OC(=O)[C@@H]2C=C1C", "note": "[Compound 6, Milbemycin β1]", "values": [
      {"measurement": "MIC of fluconazole, Flu + Mb ([…])", "setting": "[1]; YEM-37, CDR2, milbemycin β1 […]", "value": 0.25, "unit": "µg/mL"},
      {"measurement": "MIC of fluconazole, Flu + Mb (2.5 μg/ml)", "setting": "[2]; YEM-5, milbemycin β1 2.5 μg/ml", "value": 8, "unit": "µg/mL"},
      {"measurement": "MIC of fluconazole, Flu + Mb ([…])", "setting": "[3]", "value": 128, "unit": "µg/mL"},
      {"measurement": "MIC of fluconazole, Flu + Mb ([…])", "setting": "[4]", "value": 0.25, "unit": "µg/mL"},
      {"measurement": "MIC of fluconazole, Flu + Mb ([…])", "setting": "[5]; YEM-39, CgCDR, milbemycin β1 […]", "value": 1, "unit": "µg/mL"},
      {"measurement": "MIC of fluconazole, Flu + Mb ([…])", "setting": "[6]; YEM-38, FLU1, milbemycin β1 […]", "value": 4, "unit": "µg/mL"},
      {"measurement": "MIC of fluconazole, Flu + Mb ([…])", "setting": "[7]; YEM-40, CgCDR (MF), milbemycin β1 […]", "value": 16, "unit": "µg/mL"},
      {"measurement": "MIC of fluconazole, Flu + Mb (2.5 μg/ml)", "setting": "[8]; YEM-11, milbemycin β1 2.5 μg/ml", "value": 32, "unit": "µg/mL"},
      {"measurement": "MIC of fluconazole, Flu + Mb (2.5 μg/ml)", "setting": "[9]; YEM-13, milbemycin β1 2.5 μg/ml", "value": 32, "unit": "µg/mL"},
      {"measurement": "MIC of fluconazole, Flu + Mb (2.5 μg/ml)", "setting": "[10]; YEM-15, milbemycin β1 2.5 μg/ml", "value": 1, "unit": "µg/mL"}
    ]},
    {"compound": "OC(Cn1cncn1)(Cn1cncn1)c1ccc(F)cc1F", "note": "[Fluconazole, fluconazole, reference compound]", "values": [
      {"measurement": "MIC", "setting": "[1]; [14]", "value": 2, "unit": "µg/mL"},
      {"measurement": "MIC", "setting": "[11]; [15]", "value": 128, "unit": "µg/mL"},
      {"measurement": "MIC", "setting": "[2]; [15]", "value": "> 128", "unit": "µg/mL"},
      {"measurement": "MIC", "setting": "[12]", "value": 0.25, "unit": "µg/mL"},
      {"measurement": "MIC", "setting": "[5]; [14]", "value": 32, "unit": "µg/mL"},
      {"measurement": "MIC", "setting": "[6]; [14]", "value": 4, "unit": "µg/mL"},
      {"measurement": "MIC", "setting": "[7]; [14]", "value": 16, "unit": "µg/mL"},
      {"measurement": "MIC", "setting": "[8]; [15]", "value": 32, "unit": "µg/mL"},
      {"measurement": "MIC", "setting": "[9]; [15]", "value": 32, "unit": "µg/mL"},
      {"measurement": "MIC", "setting": "[10]; [15]", "value": 128, "unit": "µg/mL"},
      {"measurement": "MIC", "setting": "[13]; Nakaseomyces glabratus, read-out: MIC Flu alone", "value": "> 128", "unit": "µg/mL"}
    ]},
    {"compound": "Milbemycin oxime [Compound 2]", "values": [
      {"measurement": "MIC of fluconazole, Flu + McOxm (2.5 μg/ml)", "setting": "[11]", "value": 0.25, "unit": "µg/mL"},
      {"measurement": "MIC of fluconazole, Flu + McOxm (2.5 μg/ml)", "setting": "[13]", "value": 128, "unit": "µg/mL"}
    ]}
  ]
}
